Measurements reported in publication PMC10412597, “Small molecule branched-chain ketoacid dehydrogenase kinase (BDK) inhibitors with opposing effects on BDK protein levels” (Nature Communications, 2023).
Like-named read-outs stand apart in the source and are kept apart here.

Columns and labels:
[1] = target: T1, Serotonin 5-HT2a (Homo sapiens, UniProt P28223); design: Cerep Bioprint off-target panel, functional receptor agonism or antagonism; settings: agonist
T1 construct: gene HTR2A
Experimental: To discover a potent and selective BDK inhibitor, a subset of the Pfizer compound collection was screened. […] Off target activity was assessed in both CEREP and kinase panels (Supplementary Tables 2, 3).

[2] = target: T2, BDK (branched-chain ketoacid dehydrogenase kinase, BCKDK; hBDK) (Homo sapiens, UniProt O14874); test: SPR; assay type: binding
T2 construct: purified recombinant kinase; construct details only in Supplementary Information; human stated for the crystal structures
Text: SPR on BDK (branched-chain ketoacid dehydrogenase kinase, BCKDK; hBDK)

[3] = target: T3, BDK-BCKDHE2 (biotinylated BDK with full length non-lipoylated E2 core subunit) (Homo sapiens, UniProt O14874); test: AlphaLISA BDK-E2 protein-protein interaction, signal decrease; assay type: binding
T3 construct: gene BCKDK; E2 with N-terminal FLAG and TEV site, DBT residues 62-482, bacterial expression, non-lipoylated; with Lipoamide acyltransferase component of branched-chain alpha-keto acid dehydrogenase complex, mitochondrial

[4] = target: T3, BDK-BCKDHE2 (biotinylated BDK with full length non-lipoylated E2 core subunit); test: AlphaLISA BDK-E2 protein-protein interaction, signal increase; assay type: binding
[5] = target: T2, BDK (branched-chain ketoacid dehydrogenase kinase, BCKDK; hBDK); test: FRET assay of BDK phosphorylation of E2 RBD-E1 peptide substrate; assay type: biochemical; settings: read-out: BDK in vitro IC50 (nM)^a
Text: FRET assay of BDK phosphorylation of E2 RBD-E1 peptide substrate on BDK (branched-chain ketoacid dehydrogenase kinase, BCKDK; hBDK)

[6] = target: T4, BDK in human skeletal myocytes (Homo sapiens, UniProt O14874); test: AlphaLISA SureFire Ultra BCKDH phosphorylation in human skeletal myocytes; assay type: cell-based; settings: intact cells; read-out: Human skeletal myocyte IC50 (nM)^a
T4 construct: gene BCKDK; endogenous full kinase in human skeletal myocytes; read-out BCKDH E1alpha phosphorylation
Text: AlphaLISA SureFire Ultra BCKDH phosphorylation in human skeletal myocytes on BDK in human skeletal myocytes

[7] = target: T2, BDK (branched-chain ketoacid dehydrogenase kinase, BCKDK; hBDK); test: biochemical; design: TR-FRET BDK kinase assay, phosphorylation of LBD-E1 substrate, 15 uM ATP; settings: read-out: BDK in vitro IC50
Experimental: 705 covered with a lid and allowed to incubate at room temperature for 90 min. Final concentration of 706 LBD-E1 substrate was 50 nM and final concentration of ATP was 15 µM. Following incubation, 707 the enzyme reactions were stopped by adding 5 µL of 4X stop/primary antibody solution 708 containing 100 mM (final) EDTA, 2 nM (final) anti-His Eu antibody, and 1:1000 anti-pE1 antibody 709 in assay buffer. The plates were covered and incubated at room temperature for 30 min. Finally, 710 5 µL of 4X detection reagent consisting of 20 nM (final) anti-rabbit Ulight antibody and 1X LANCE 711 detection buffer in dH2O was then added. The plates were centrifuged for 30 seconds at 113 x g. 712 After a 60 min incubation, the plates were read on an EnVision® MultiReader in TR-FRET mode 713 (excitation 320 nm: emissions 665 nm). The raw data from the EnVision® MultiReader was 714 expressed as a ratio and was analyzed using proprietary software (Activity Base). […] IC50 values were determined from the percent effect data using a 4-parameter logistic dose 718 response model (Activity Base). To discover a potent and selective BDK inhibitor, a subset of the Pfizer compound collection was screened. […] Off target activity was assessed in both CEREP and kinase panels (Supplementary Tables 2, 3).

[8] = target: T2, BDK (branched-chain ketoacid dehydrogenase kinase, BCKDK; hBDK); test: biochemical; design: SPR binding to captured BDK, 1:1 binding model; settings: read-out: BDK SPR KD
Experimental: 828 Tween-20 and 2% DMSO. The same buffer was used as the running buffer during the 829 experiments. Compound samples were injected at a flow rate of 30 µL/min for 120 seconds of 830 association time followed by at least 300 seconds of dissociation period. The compounds were 831 tested in a concentration series consisting of at least 6 samples made with 2-fold dilution. The 832 highest concentration was selected based on compound potency in the biochemical assay or 833 binding affinity observed in a previous experiment. Multiple blank injections were run before and 834 after each compound series to allow double reference subtraction during data processing and 835 analysis. Radicicol was tested in every experiment as a positive control to assess activity of the 836 captured protein on the surface. A DMSO curve was run during each experiment to properly 837 correct for excluded volume. The data were processed and analyzed using Bruker Analyzer, 838 Scrubber and Biaeval softwares to calculate binding affinities and kinetics by fitting the data to 839 1:1 binding model. To discover a potent and selective BDK inhibitor, a subset of the Pfizer compound collection was screened. […] Off target activity was assessed in both CEREP and kinase panels (Supplementary Tables 2, 3).

T1 sequence (P28223 whole entry): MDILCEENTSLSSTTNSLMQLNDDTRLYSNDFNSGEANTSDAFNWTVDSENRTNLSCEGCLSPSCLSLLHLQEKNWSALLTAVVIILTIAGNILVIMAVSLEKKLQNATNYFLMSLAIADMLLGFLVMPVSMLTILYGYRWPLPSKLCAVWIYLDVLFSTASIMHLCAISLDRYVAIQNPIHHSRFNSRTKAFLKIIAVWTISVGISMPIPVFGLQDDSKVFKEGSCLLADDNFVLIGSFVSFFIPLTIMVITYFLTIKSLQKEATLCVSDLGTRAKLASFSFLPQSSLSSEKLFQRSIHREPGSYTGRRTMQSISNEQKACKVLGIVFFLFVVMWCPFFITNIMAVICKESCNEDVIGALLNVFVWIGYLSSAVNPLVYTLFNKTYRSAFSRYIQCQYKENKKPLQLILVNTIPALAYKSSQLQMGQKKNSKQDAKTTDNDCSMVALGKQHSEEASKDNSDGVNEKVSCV

IC50 [7] [nM]	Kd [8] [nM]	SMILES	Kd [2] [nM]	IC50 [5] [nM]	further results
–	–	O=C(O)c1sc2cc(F)sc2c1Cl [PF-07208254]	84 ± 8.7	–	% (agonism) PF-07208254 ([1]; 100 µM): -5%; IC50 [3]: 56 ± 26 nM
–	–	CC(C)COc1ccc(-c2nc(-c3ccccc3C(=O)O)cs2)cn1 [PF-07238025]	4.4 ± 1.1	4.5 ± 0.58	EC50 ([4]; stabilises BDK-E2 interaction, pH […] KCl, […] MgCl2, […] DTT): 19 ± 1.7 nM; IC50 [6]: 59 ± 10 nM
–	–	CCC1(COc2ccc(-c3csc(-c4ccccc4C(=O)O)n3)cn2)CC1 [PF-07247685]	0.68 ± 0.38	0.86 ± 0.15	% (agonism) PF-07247685 ([1]; 10 µM): 3%; EC50 [4]: 2.2 ± 0.35 nM
600 ± 51	75 ± 2	O=C(O)c1sc2cc(Cl)sc2c1Cl [S1]	–	–	–
210 ± 10	270 ± 31	O=C(O)c1cc2sc(F)cc2s1 [S2]	–	–	–
1200 ± 490	5800 ± 4400	Cc1ccc(-c2nc(-c3ccccc3C(=O)O)cs2)cc1 [S3]	–	–	–
